Format in all cases: in vivo
In test [1] the test system is peach aphid (Myzus persicae). Kind of test: Myzus test. The conditions noted are these: active compound concentration 0.1 %, infested cabbage leaves (Brassica oleracea) dipped. On the procedure:
Myzus Test Solvent: 7 parts by weight of dimethylformamide Emulsifier: 1 part by weight of alkylaryl polyglycol ether To produce a suitable preparation of active compound, 1 part by weight of active compound is mixed with the stated amounts of solvent and emulsifier, and the concentrate is diluted with emulsifier-containing water to the desired concentration. Cabbage leaves (Brassica oleracea) which are heavily infested by the peach aphid (Myzus persicae) are treated by being dipped into the preparation of active compound of the desired concentration. After the desired period of time, the kill in % is determined. 100% means that all aphids have been killed; 0% means that none of the aphids have been killed.

Test [2] has as its system green rice leaf hoppers (Nephotettix cincticeps). Briefly: Nephotettix test. As to conditions: active compound concentration 0.1 %, rice seedlings (Oryza sativa) dipped. On the procedure: Nephotettix Test Solvent: 7 parts by weight of dimethylformamide Emulsifier: 1 part by weight of alkylaryl polyglycol ether To produce a suitable preparation of active compound, 1 part by weight of active compound is mixed with the stated amounts of solvent and emulsifier, and the concentrate is diluted with emulsifier-containing water to the desired concentration. Rice seedlings (Oryza sativa) are treated by being dipped into the active compound preparation of the desired concentration and are populated with green rice leaf hoppers (Nephotettix cincticeps) while the leaves are still moist. After the desired period of time, the kill in % is determined. 100% means that all leaf hoppers have been killed; 0% means that none of the leaf hoppers have been killed.

Test [3] deals with larvae of the mustard beetle (Phaedon cochleariae). Briefly: Phaedon larvae test. As to conditions: active compound concentration 0.1 %, cabbage leaves (Brassica oleracea) dipped. On the procedure:
Phaedon Larvae Test Solvent: 7 parts by weight of dimethylformamide Emulsifier: 1 part by weight of alkylaryl polyglycol ether To produce a suitable preparation of active compound, 1 part by weight of active compound is mixed with the stated amounts of solvent and emulsifier, and the concentrate is diluted with emulsifier-containing water to the desired concentration. Cabbage leaves (Brassica oleracea) are treated by being dipped into the preparation of active compound of the desired concentration and are populated with larvae of the mustard beetle (Phaedon cochleariae) while the leaves are still moist. After the desired period of time, the kill in % is determined. 100% means that all beetle larvae have been killed; 0% means that none of the beetle larvae have been killed.

The test system of test [4] is caterpillars of the diamond back moth (Plutella xylostella). Kind of test: Plutella test. As to conditions: active compound concentration 0.1 %, cabbage leaves (Brassica oleracea) dipped.

With `Cc1cc(F)ccc1-c1c(O)c(C)c(-c2ccccn2)oc1=O` [drawing 10], the “Kill in % after 6 d” value in test [1] is 98%.
`Cc1cc(Cl)ccc1-c1c(O)c(C)c(-c2ccc(F)cc2)oc1=O` [drawing 11]: in test [2], the “Kill in % after 6 d” value came out at 100%.
As for `Cc1cc(F)ccc1-c1c(O)c(C)c(-c2ccccn2)oc1=O` [drawing 12], the “Kill in % after 7 d” value in test [3] is 100%.
For the compound `Cc1cc(Cl)ccc1-c1c(O)c(C)c(-c2ccc(F)cc2)oc1=O` [drawing 13], the “Kill in % after 7 d” value in test [4] is 100%.
In the case of `Cc1cc(F)ccc1-c1c(O)c(C)c(-c2ccccn2)oc1=O` [drawing 14], the “Kill in % after 7 d” value in test [4] is reported as 100%.

The values above are taken from patent US6472350B1, “Utilization of 3-phenyl-pyrones for pest control” (Bayer Aktiengesellschaft, priority 1998, dated 2002).
